Measured values taken from ChEMBL document CHEMBL3045770, “Design and synthesis of some thieno[2,3-c]pyridazine derivatives of expected anticancer activity” (2013).

Experiments:
Assay type in all cases: functional
[1] = tested on: CAKI-1; test: Cytotoxicity against Homo sapiens (human) Caki1 cells after 48 hr by SRB assay; settings: CAKI-1, 48 h
[2] = tested on: 786-0; test: Cytotoxicity against Homo sapiens (human) 786-0 cells after 48 hr by SRB assay; settings: 786-0, 48 h
[3] = tested on: MDA-MB-231; test: Cytotoxicity against Homo sapiens (human) MDA-MB-231 cells after 48 hr by SRB assay; settings: MDA-MB-231, 48 h
[4] = tested on: KM12; test: Cytotoxicity against Homo sapiens (human) KM12 cells after 48 hr by SRB assay; settings: KM12, 48 h
[5] = tested on: ACHN; test: Cytotoxicity against Homo sapiens (human) ACHN cells after 48 hr by SRB assay
[6] = tested on: MDA-MB-435; test: Cytotoxicity against Homo sapiens (human) MDA-MB-435 cells after 48 hr by SRB assay; settings: MDA-MB-435, 48 h
[7] = tested on: SF-539; test: Cytotoxicity against Homo sapiens (human) SF539 cells after 48 hr by SRB assay; settings: SF-539, 48 h
[8] = tested on: RPMI-8226; test: Cytotoxicity against Homo sapiens (human) RPMI8226 cells after 48 hr by SRB assay; settings: RPMI-8226, 48 h
[9] = tested on: MDA-MB-468; test: Cytotoxicity against Homo sapiens (human) MDA-MB-468 cells after 48 hr by SRB assay; settings: MDA-MB-468, 48 h
[10] = tested on: OVCAR-5; test: Cytotoxicity against Homo sapiens (human) OVCAR5 cells after 48 hr by SRB assay; settings: OVCAR-5, 48 h
[11] = tested on: MCF7; test: Cytotoxicity against Homo sapiens (human) MCF7 cells after 48 hr by SRB assay; settings: MCF7, 48 h
[12] = tested on: M14; test: Cytotoxicity against Homo sapiens (human) M14 cells after 48 hr by SRB assay; settings: M14, 48 h
[13] = tested on: SK-MEL-5; test: Cytotoxicity against Homo sapiens (human) SK-MEL-5 cells after 48 hr by SRB assay; settings: SK-MEL-5, 48 h
[14] = tested on: SF-295; test: Cytotoxicity against Homo sapiens (human) SF295 cells after 48 hr by SRB assay; settings: SF-295, 48 h
[15] = tested on: Hs-578T; test: Cytotoxicity against Homo sapiens (human) Hs 578T cells after 48 hr by SRB assay
[16] = tested on: A549; test: Cytotoxicity against Homo sapiens (human) A549 cells after 48 hr by SRB assay; settings: A549, 48 h
[17] = tested on: Malme-3M; test: Cytotoxicity against Homo sapiens (human) MALME-3M cells after 48 hr by SRB assay
[18] = tested on: NCI-H226; test: Cytotoxicity against Homo sapiens (human) NCI-H226 cells after 48 hr by SRB assay; settings: NCI-H226, 48 h
[19] = tested on: U-251; test: Cytotoxicity against Homo sapiens (human) U251 cells after 48 hr by SRB assay; settings: U-251, 48 h
[20] = tested on: HT-29; test: Cytotoxicity against Homo sapiens (human) HT-29 cells after 48 hr by SRB assay; settings: HT-29, 48 h
[21] = tested on: TK-10; test: Cytotoxicity against Homo sapiens (human) TK10 cells after 48 hr by SRB assay; settings: TK-10, 48 h
[22] = tested on: UO-31; test: Cytotoxicity against Homo sapiens (human) UO31 cells after 48 hr by SRB assay; settings: UO-31, 48 h
[23] = tested on: BT-549; test: Cytotoxicity against Homo sapiens (human) BT549 cells after 48 hr by SRB assay; settings: BT-549, 48 h
[24] = tested on: RXF 393; test: Cytotoxicity against Homo sapiens (human) RXF393 cells after 48 hr by SRB assay; settings: RXF 393, 48 h
[25] = tested on: SNB-19; test: Cytotoxicity against Homo sapiens (human) SNB19 cells after 48 hr by SRB assay; settings: SNB-19, 48 h
[26] = tested on: HOP-62; test: Cytotoxicity against Homo sapiens (human) HOP62 cells after 48 hr by SRB assay; settings: HOP-62, 48 h
[27] = tested on: SF-268; test: Cytotoxicity against Homo sapiens (human) SF268 cells after 48 hr by SRB assay; settings: SF-268, 48 h
[28] = tested on: HOP-92; test: Cytotoxicity against Homo sapiens (human) HOP92 cells after 48 hr by SRB assay; settings: HOP-92, 48 h
[29] = tested on: CCRF-CEM; test: Cytotoxicity against Homo sapiens (human) CCRF-CEM cells after 48 hr by SRB assay
[30] = tested on: K562; test: Cytotoxicity against Homo sapiens (human) K562 cells after 48 hr by SRB assay; settings: K562, 48 h
[31] = tested on: OVCAR-3; test: Cytotoxicity against Homo sapiens (human) OVCAR3 cells after 48 hr by SRB assay; settings: OVCAR-3, 48 h
[32] = tested on: LOX IMVI; test: Cytotoxicity against Homo sapiens (human) LOXIMVI cells after 48 hr by SRB assay
[33] = tested on: DU-145; test: Cytotoxicity against Homo sapiens (human) DU145 cells after 48 hr by SRB assay; settings: DU-145, 48 h
[34] = tested on: MOLT-4; test: Cytotoxicity against Homo sapiens (human) MOLT4 cells after 48 hr by SRB assay; settings: MOLT-4, 48 h
[35] = read-out: LC50 (the source's name)

Oc1c(-c2nnc(-c3ccc(Cl)cc3)o2)sc2nnc(-c3ccccc3)c(-c3ccccc3)c12
GI50 [1]: 1.84 µM | TGI [1]: 9.95 µM | GI50 [2]: 5.86 µM | TGI [2]: 18.3 µM | GI50 [3]: 4.56 µM | TGI [3]: 12.3 µM | CC50 [3, 35]: 0.0183 µM | GI50 [4]: 4.7 µM | TGI [4]: 15 µM | CC50 [4, 35]: 0.0183 µM | GI50 [5]: 4.25 µM | TGI [5]: 17.4 µM | CC50 [5, 35]: 0.0183 µM | GI50 [6]: 4.65 µM | TGI [6]: 18.3 µM | GI50 [7]: 4.75 µM | TGI [7]: 15.8 µM | CC50 [7, 35]: 0.0183 µM | GI50 [8]: 3.97 µM | TGI [8]: 18.3 µM | CC50 [8, 35]: 0.0183 µM | GI50 [9]: 5.04 µM | TGI [9]: 10.5 µM | GI50 [10]: 2.18 µM | TGI [10]: 18.3 µM | CC50 [10, 35]: 0.0183 µM | GI50 [11]: 4.43 µM | TGI [11]: 18.3 µM | CC50 [11, 35]: 0.0183 µM | GI50 [12]: 4.99 µM | TGI [12]: 12.2 µM | GI50 [13]: 5.41 µM | TGI [13]: 9.1 µM | CC50 [13, 35]: 0.0136 µM | GI50 [14]: 3.28 µM | TGI [14]: 8.15 µM | GI50 [15]: 4.43 µM | TGI [15]: 18.3 µM | GI50 [16]: 4.65 µM | TGI [16]: 14.8 µM | CC50 [16, 35]: 0.0183 µM | GI50 [17]: 4.61 µM | TGI [17]: 11.3 µM | GI50 [18]: 3.06 µM | TGI [18]: 18.3 µM | CC50 [18, 35]: 0.0183 µM | GI50 [19]: 3.55 µM | TGI [19]: 18.3 µM | CC50 [19, 35]: 0.0183 µM | GI50 [20]: 4.56 µM | TGI [20]: 9.1 µM | CC50 [20, 35]: 0.0183 µM | GI50 [21]: 5.14 µM | TGI [21]: 16.9 µM | CC50 [21, 35]: 0.0183 µM | GI50 [22]: 3.62 µM | TGI [22]: 6.22 µM | GI50 [23]: 1.01 µM | TGI [23]: 18.3 µM | GI50 [24]: 3.66 µM | TGI [24]: 18.3 µM | GI50 [25]: 4.7 µM | TGI [25]: 18.3 µM | GI50 [26]: 4.99 µM | TGI [26]: 18.3 µM | GI50 [27]: 5.52 µM | TGI [27]: 18.3 µM | GI50 [28]: 3.21 µM | TGI [28]: 6.74 µM | CC50 [28, 35]: 0.0183 µM | GI50 [29]: 2.88 µM | TGI [29]: 18.3 µM | GI50 [30]: 4.17 µM | TGI [30]: 18.3 µM | CC50 [30, 35]: 0.0183 µM | GI50 [31]: 3.77 µM | TGI [31]: 6.1 µM | GI50 [32]: 3.73 µM | TGI [32]: 9.47 µM | CC50 [32, 35]: 0.0183 µM | GI50 [33]: 6.22 µM | TGI [33]: 18.3 µM | GI50 [34]: 4.47 µM | TGI [34]: 18.3 µM | CC50 [34, 35]: 0.0183 µM
